Measured values taken from patent US8410145B2, “Insecticidal compounds” (Syngenta Crop Protection LLC, priority 2007, dated 2013).

Key:
Type in all cases: in vivo
[1] = test system: Tetranychus urticae (Two-Spotted Spider Mite); experiment: Tetranychus urticae bean leaf disc spray test; conditions: foliar, 192 h, 200 ppm spray on bean leaf discs, mite populations of mixed ages, egg, larval and adult mortality 8 days later
Text: (§1) Cotton leaf discs were placed on agar in a 24-well microtiter plate and sprayed with test solutions at an application rate of 200 ppm. After drying, the leaf discs were infested with 5 to L1 larvae. The samples were checked for mortality, feeding behavior, and growth regulation 3 days after treatment (DAT). The following compounds gave at least 80% control of Spodoptera littoralis: A1, A2, A3, A4, A6, A9, A10, A11, A12, A13, A14, A15, A16, A19, A20, A22, A23, A25, A26, A27, B1, B2, B3, B5, B6, B7, B8, B9, B11, B12, B13, B15, B16, B18, B19, B20, B21, B22, B24, B26, B27, B28, C1, C2, C3, C4, C5, C6, C7, C8, C9, C10, C12, C13, C16, C19, C20, C21, C22, C23, D1, D2, D3, D4, D5, D6, D7, D8, D9, D10, D11, D12, D13, D14, D15, D16, D17, D18, D19, D20, D21, D22, D23, D24. Heliothis virescens (Tobacco Budworm): Eggs (0-24 h old) were placed in 24-well microtiter plate on artificial diet and treated with test solutions at an application rate of 200 ppm (concentration in well 18 ppm) by pipetting. After an incubation period of 4 days, samples were checked for egg mortality, larval mortality, and growth regulation. The following compounds gave at least 80% control of Heliothis virescens: A1, A2, A3, A4, A13, A15, A17, A19, A20, A22, A23, A25, A26, A28, B1, B2, B3, B5, B6, B7, B9, B11, B13, B15, B18, B19, B20, B21, B25, B26, B27, B28, C1, C2, C3, C4, C5, C6, C7, C8, C9, C10, C12, C14, C16, C17, C19, C20, C21, C22, D1, D2, D3, D4, D5, D6, D7, D8, D9, D10, D11, D12, D13, D14, D15, D16, D17, D18, D19, D20, D21, D22, D23, E1, E2, E3, E4, E5. Plutella xylostella (Diamond Back Moth): 24-well microtiter plate (MTP) with artificial diet was treated with test solutions at an application rate of 200 ppm (concentration in well 18 ppm) by pipetting. After drying, the MTP's were infested with L2 larvae (7-12 per well). After an incubation period of 6 days, samples were checked for larval mortality and growth regulation. The following compounds gave at least 80% control of Plutella xylostella: A1, A3, A4, A10, All, A15, A19, A23, A25, B1, B2, B3, B5, B6, B7, B8, B9, B11, B13, B15, B18, B19, B20, B21, B26, B27, B28, C1, C2, C3, C4, C6, C7, C8, C9, C12, C16, C19, C20, C22, D1, D2, D3, D4, D5, D6, D7, D8, D9, D10, D12, D13, D14, D15, D16, D17, D18, D19, D20, D21, D22, D23, E1, E3, E5. Diabrotica balteata (Corn Root Worm): A 24-well microtiter plate (MTP) with artificial diet was treated with test solutions at an application rate of 200 ppm (concentration in well 18 ppm) by pipetting. After drying, the MTP's were infested with L2 larvae (6-10 per well). After an incubation period of 5 days, samples were checked for larval mortality and growth regulation. The following compounds gave at least 80% control of Diabrotica balteata: A2, A3, A4, A9, A11, A12, A13, A14, A15, A17, A19, A21, A22, A23, A24, A25, A26, B1, B2, B3, B6, B7, B8, B11, B13, B14, B15, B18, B19, B20, B21, B22, B26, B28, C1, C2, C3, C4, C5, C6, C7, C8, C9, C10, C12, C14, C15, C16, C19, C20, C21, C22, C23, C26, D1, D2, D4, D5, D6, D7, D8, D9, D10, D12, D14, D15, D16, D17, D18, D19, D20, D21, D22, D23, E2, E3, E5. Thrips tabaci (Onion Thrips): Sunflower leaf discs were placed on agar in a 24-well microtiter plate and sprayed with test solutions at an application rate of 200 ppm. After drying, the leaf discs were infested with an […] population of mixed ages. After an incubation period of 7 days, samples were checked for mortality. The following compounds gave at least 80% control of Thrips tabaci: B1, B7, B11, B15, B18, B19, B28, D1, D2, D3, D4, D5, D6, D7, D8, D9, D10, D12, D16, D18, D19, D20, D21, D23. Tetranychus urticae (Two-Spotted Spider Mite): Bean leaf discs on agar in 24-well microtiter plates were sprayed with test solutions at an application rate of 200 ppm. After drying, the leaf discs are infested with mite populations of mixed ages. 8 days later, discs are checked for egg mortality, larval mortality, and adult mortality. […]

[2] = test system: Heliothis virescens (Tobacco Budworm); experiment: Heliothis virescens egg test on artificial diet; conditions: 96 h, 200 ppm (concentration in well 18 ppm), eggs 0-24 h old on artificial diet, egg mortality, larval mortality, growth regulation after 4 days
Text: as §1

[3] = test system: Diabrotica balteata (Corn Root Worm); experiment: Diabrotica balteata larvae test on artificial diet; conditions: 120 h, 200 ppm (concentration in well 18 ppm), L2 larvae, larval mortality and growth regulation after 5 days
Text: as §1

[4] = test system: Plutella xylostella (Diamond Back Moth); experiment: Plutella xylostella larvae test on artificial diet; conditions: 144 h, 200 ppm (concentration in well 18 ppm), L2 larvae, larval mortality and growth regulation after 6 days
Text: as §1

[5] = test system: Spodoptera littoralis (Egyptian Cotton Leafworm); experiment: Spodoptera littoralis cotton leaf disc spray test; conditions: foliar, 72 h, 200 ppm spray on cotton leaf discs, L1 larvae, mortality, feeding behavior, growth regulation 3 DAT
Text: as §1

[6] = test system: Spodoptera littoralis, Heliothis virescens, Plutella xylostella, Diabrotica balteata, Thrips tabaci, Tetranychus urticae; experiment: Pesticidal tests, same protocols (all six pests taken together); conditions: same protocols as b207 (200 ppm), under the test conditions
Text: as §1

[7] = test system: Thrips tabaci (Onion Thrips); experiment: Thrips tabaci sunflower leaf disc spray test; conditions: foliar, 168 h, 200 ppm spray on sunflower leaf discs, population of mixed ages, mortality after 7 days
Text: as §1

`N#Cc1ccc(C(=O)Nc2cccc(C3=NOC(c4cc(Cl)cc(Cl)c4)(C(F)(F)F)C3)c2)cc1` (stereo not shown) [A4, 4-cyano-N-{3-[5-(3,5-dichloro-phenyl)-5-trifluoromethyl-4,5-dihydro-isoxazol-3-yl]phenyl}-benzamide] gave a pest or weed control at 200 ppm [1] of no less than 80%, a pest or weed control at 200 ppm [2] of no less than 80% and a pest or weed control at 200 ppm [3] of no less than 80%. It also gave a pest or weed control at 200 ppm [4] of no less than 80% and a pest or weed control at 200 ppm [5] of no less than 80%.

For `O=C(CBr)Nc1cccc(C2=NOC(c3cc(Cl)cc(Cl)c3)(C(F)(F)F)C2)c1` (stereo not shown) [A8], the “effect on mortality, feeding behavior, or growth regulation” value (shortened to “effect on mortality, feeding behavior”) [6] was “little or no effect”.

`O=C(Nc1cccc(C2=NOC(c3cc(Cl)cc(Cl)c3)(C(F)(F)F)C2)c1F)c1ccccc1F` (stereo not shown) [B1] was tested, and the pest or weed control at 200 ppm [7] was no less than 80%, the pest or weed control at 200 ppm [2] was no less than 80% and the pest or weed control at 200 ppm [3] was no less than 80%. It also gave a pest or weed control at 200 ppm [4] of no less than 80% and a pest or weed control at 200 ppm [5] of no less than 80%.

With `N#Cc1ccc(C(=O)Nc2cccc(C3=NOC(c4cc(Cl)cc(Cl)c4)(C(F)(F)F)C3)c2F)cc1` (stereo not shown) [B4] the “effect on mortality, feeding behavior” value [6] was “little or no effect”.

For `O=C(Nc1cccc(C2=NOC(c3cc(Cl)cc(Cl)c3)(C(F)(F)F)C2)c1F)c1ccc([N+](=O)[O-])cc1` (stereo not shown) [B5], the pest or weed control at 200 ppm [1] was no less than 80%, the pest or weed control at 200 ppm [2] was no less than 80% and the pest or weed control at 200 ppm [4] was no less than 80%. It also gave a pest or weed control at 200 ppm [5] of no less than 80%.

With `O=C(Nc1cccc(C2=NOC(c3cc(Cl)cc(Cl)c3)(C(F)(F)F)C2)c1F)c1ccco1` (stereo not shown) [B10] the “effect on mortality, feeding behavior” value [6] was “little or no effect”.

With `COc1ccccc1C(=O)Nc1cccc(C2=NOC(c3cc(Cl)cc(Cl)c3)(C(F)(F)F)C2)c1F` (stereo not shown) [B15] the pest or weed control at 200 ppm [7] was no less than 80%, the pest or weed control at 200 ppm [2] was no less than 80% and the pest or weed control at 200 ppm [3] was no less than 80%. The pest or weed control at 200 ppm [4] was no less than 80% and the pest or weed control at 200 ppm [5] was no less than 80%.

`O=C(Nc1cccc(C2=NOC(c3cc(Cl)cc(Cl)c3)(C(F)(F)F)C2)c1F)c1ccc(F)cc1` (stereo not shown) [B17] was tested, and the “effect on mortality, feeding behavior” value [6] was “little or no effect”.

`Cc1ccc(C(=O)Nc2cc(C3=NOC(c4cc(Cl)cc(Cl)c4)(C(F)(F)F)C3)ccc2F)cc1` (stereo not shown) [C9] was tested, and the pest or weed control at 200 ppm [1] was no less than 80%, the pest or weed control at 200 ppm [2] was no less than 80% and the pest or weed control at 200 ppm [3] was no less than 80%. It also gave a pest or weed control at 200 ppm [4] of no less than 80% and a pest or weed control at 200 ppm [5] of no less than 80%.

With `COc1ccccc1C(=O)Nc1cc(C2=NOC(c3cc(Cl)cc(Cl)c3)(C(F)(F)F)C2)ccc1F` (stereo not shown) [C18] the “effect on mortality, feeding behavior” value [6] was “little or no effect”.

With `O=C(Nc1cc(C2=NOC(c3cc(Cl)cc(Cl)c3)(C(F)(F)F)C2)ccc1F)c1ccc(F)cc1F` (stereo not shown) [C24] the “effect on mortality, feeding behavior” value [6] was “little or no effect”.

In the case of `N#Cc1ccc(C(=O)Nc2cc(C3=NOC(c4cc(Cl)cc(Cl)c4)(C(F)(F)F)C3)ccc2C#N)cc1` (stereo not shown) [D1], the pest or weed control at 200 ppm [7] is reported as no less than 80%, the pest or weed control at 200 ppm [1] is reported as no less than 80% and the pest or weed control at 200 ppm [2] is reported as no less than 80%. The pest or weed control at 200 ppm [3] was no less than 80%, the pest or weed control at 200 ppm [4] was no less than 80% and the pest or weed control at 200 ppm [5] was no less than 80%.

Molecule `N#Cc1ccc(C2=NOC(c3cc(Cl)cc(Cl)c3)(C(F)(F)F)C2)cc1NC(=O)c1ccccc1` (stereo not shown) [D2] has a pest or weed control at 200 ppm [7] of no less than 80%, a pest or weed control at 200 ppm [1] of no less than 80% and a pest or weed control at 200 ppm [2] of no less than 80%. It also gave a pest or weed control at 200 ppm [3] of no less than 80%, a pest or weed control at 200 ppm [4] of no less than 80% and a pest or weed control at 200 ppm [5] of no less than 80%.

For `N#Cc1ccc(C2=NOC(c3cc(Cl)cc(Cl)c3)(C(F)(F)F)C2)cc1NC(=O)c1ccccc1F` (stereo not shown) [D5], the pest or weed control at 200 ppm [7] was no less than 80%, the pest or weed control at 200 ppm [2] was no less than 80% and the pest or weed control at 200 ppm [3] was no less than 80%. The pest or weed control at 200 ppm [4] was no less than 80% and the pest or weed control at 200 ppm [5] was no less than 80%.

Work on `Cc1ccccc1C(=O)Nc1cc(C2=NOC(c3cc(Cl)cc(Cl)c3)(C(F)(F)F)C2)ccc1C#N` (stereo not shown) [D6] yielded a pest or weed control at 200 ppm [7] of no less than 80%, a pest or weed control at 200 ppm [1] of no less than 80% and a pest or weed control at 200 ppm [2] of no less than 80%. For the same molecule, the pest or weed control at 200 ppm [3] was no less than 80%, the pest or weed control at 200 ppm [4] was no less than 80% and the pest or weed control at 200 ppm [5] was no less than 80%.

`N#Cc1ccc(C2=NOC(c3cc(Cl)cc(Cl)c3)(C(F)(F)F)C2)cc1NC(=O)c1ccc(F)cc1F` (stereo not shown) [D23] showed a pest or weed control at 200 ppm [7] of no less than 80%, a pest or weed control at 200 ppm [2] of no less than 80% and a pest or weed control at 200 ppm [3] of no less than 80%. For the same molecule, the pest or weed control at 200 ppm [4] was no less than 80% and the pest or weed control at 200 ppm [5] was no less than 80%.
